This is an account of results in patent US10556865B2, “Synergistic herbicidal composition containing certain pyridine or pyrimidine carboxylic acids and certain cereal and rice herbicides” (Dow AgroSciences, LLC, priority 2007, dated 2020).

What all share (assay type): in vivo
The subject of experiment [1] is bird's-eye speedwell (Veronica persica L; VERPE). The experiment can be described thus: Postemergence herbicidal activity of mixtures in cereal crops (greenhouse, visual injury). How it is done:
(§1) The plants were grown for 7-36 days in a greenhouse with an approximate 14 hour photoperiod which was maintained at about 18° C. during the day and 17° C. during the night. Nutrients and water were added on a regular basis and supplemental lighting was provided with overhead metal halide 1000-Watt lamps as necessary. The plants were employed for testing when they reached the second or third true leaf stage.
(§2) Treatments consisted of compound (as listed in Tables 1 through 64) and a second cereal herbicide alone and in combination. […] Control plants were sprayed in the same manner with the solvent blank.
(§3) The treated plants and control plants were placed in a greenhouse as described above and watered by sub-irrigation to prevent wash-off of the test compounds. After 20-22 days, the condition of the test plants as compared with that of the control plants was determined visually and scored on a scale of 0 to 100 percent where 0 corresponds to no injury and 100 corresponds to complete kill.
(§4) The following equation was used to calculate the expected activity of mixtures containing two active ingredients, A and B: Expected=A+B−(A×B/100)

The test system of experiment [2] is scented mayweed (Matricaria chamomila L; MATCH). The description is as above. The settings on record: Matricaria, post-emergence, 140 g/ha alone; read-out: MATCH Ob. On the procedure:
as §1, §2, §3, §4

Experiment [3] deals with Echinochloa species (ECHSS). The experiment can be described thus: Herbicidal mixtures for weed control in transplanted paddy rice (in-water application, visual % injury after 3 weeks). Conditions: for % Injury ECHOR Ob: ECHOR = Echinocloa oryzoides. How it is done: Weed seeds or nutlets of the desired test plant species were planted in puddled soil (mud) prepared by mixing a non-sterilized mineral soil (28 percent silt, 18 percent clay, and 54 percent sand, with a pH of about 7.3 to 7.8 and an organic matter content of about 1.0 percent) and water at a ratio of 100 kilograms (kg) of soil to 19 L of water. The prepared mud was dispensed in 250 mL aliquots into 480 mL non-perforated plastic pots with a surface area of 91.6 square centimeters leaving a headspace of 3 centimeters in each pot. Rice seeds were planted in Sun Gro MetroMix® 306 planting mixture, which typically has a pH of 6.0 to 6.8 and an organic matter content of about 30 percent, in plastic plug trays. Seedlings at the second or third leaf stage of growth were transplanted into 650 mL of mud contained in 960 mL non-perforated plastic pots with a surface area of 91.6 cm^2 4 days prior to herbicide application. The paddy was created by filling the 3 centimeter headspace of the pots with water. When required to ensure good germination and healthy plants, a fungicide treatment and/or other chemical or physical treatment was applied. The plants were grown for 4-14 days in a greenhouse with an approximate 14 hr photoperiod which was maintained at about 29° C. during the day and 26° C. during the night. Nutrients were added as Osmocote (17:6:10, N:P:K+minor nutrients) at 2 g per cup. Water was added on a regular basis to maintain the paddy flood, and supplemental lighting was provided with overhead metal halide 1000-Watt lamps as necessary. The plants were employed for testing when they reached the second or third true leaf stage.
Treatments consisted of esters or salts of compound A, compound C, or compound D and various herbicidal components alone and in combination. For technical grade compounds, a weighed amount, determined by the highest rate to be tested, was placed in an individual 120 mL glass vial and was dissolved in 20 mL of acetone to obtain concentrated stock solutions. […] The concentrated stock solutions obtained were diluted with 20 mL of an aqueous mixture containing 2.5% Agri-dex crop oil concentrate (v/v). For formulated compounds, a measured amount, determined by the highest rate to be tested, was placed in an individual 120 mL glass vial and was dissolved in 20 mL of 2.5% (v/v) Agri-dex crop oil concentrate to obtain concentrated stock solutions. The concentrated stock solutions obtained were diluted with 20 mL of acetone. Applications were made by injecting an appropriate amount of the stock solution into the aqueous layer of the paddy. Control plants were treated in the same manner with the solvent blank. All treated plant material received the same concentration of acetone and crop oil concentrate.
Forms of compounds A, C, and D were applied on an acid equivalent basis. Other herbicidal components were applied on an active ingredient basis and included acetolactate synthase (ALS)-inhibiting herbicides penoxsulam (triazolopyrimidine chemical class) applied as Grasp SC, […] (sulfonylurea chemical class) applied as Sirius G, and bensulfuron-methyl (sulfonylurea chemical class) applied as Londax; acetyl CoA carboxylase (ACCase) inhibiting herbicides cyhalofop-butyl applied as Clincher G and fenoxaprop-p-ethyl applied as Ricestar HT; auxinic herbicide quinclorac applied as Facet 75 DF; phytoene desaturase inhibiting herbicide norflurazon; and p-hydroxyphenylpyruvate dioxygenase (HPPD) inhibiting herbicide sulcotrione applied as Mikado.
The treated plants and control plants were placed in a greenhouse as described above and water was added as needed to maintain a paddy flood. After 3 weeks the condition of the test plants as compared with that of the untreated plants was determined visually and scored on a scale of 0 to 100 percent where 0 corresponds to no injury and 100 corresponds to complete kill.

Experiment [4] relates to blackgrass (Alopecurus myosuroides L; ALOMY). The experiment can be described thus: Postemergence herbicidal activity of mixtures in cereal crops (greenhouse, visual injury 0-100 percent after 20-22 days). On the procedure:
(§5) Seeds of the desired test plant species were planted in Sun Gro MetroMix® 306 planting mixture, which typically has a pH of 6.0 to 6.8 and an organic matter content of about 30 percent, in plastic pots with a surface area of 103.2 square centimeters (cm^2). […] The plants were grown for 7-36 days in a greenhouse with an approximate 14 hour photoperiod which was maintained at about 18° C. during the day and 17° C. during the night. Nutrients and water were added on a regular basis and supplemental lighting was provided with overhead metal halide 1000-Watt lamps as necessary. The plants were employed for testing when they reached the second or third true leaf stage.
(§6) Treatments consisted of compound (as listed in Tables 1 through 64) and a second cereal herbicide alone and in combination. […] The concentrated stock solutions were diluted to 1.5 mg ai/mL with the addition of 2 volumes of an aqueous mixture containing acetone, water, isopropyl alcohol, DMSO, Agri-dex crop oil concentrate, and Triton® X-77 surfactant in a 64.7:26.0:6.7:2.0:0.7:0.01 v/v ratio. A dilution solution was prepared by mixing 1 volume of 97:3 v/v acetone/DMSO and 2 volumes of an aqueous mixture containing acetone, water, isopropyl alcohol, DMSO, Agri-dex crop oil concentrate, and Triton® X-77 surfactant in a 64.7:26.0:6.7:2.0:0.7:0.01 v/v ratio. Compound requirements are based upon a 12 mL application volume at a rate of 187 liters per hectare (L/ha). […] Formulated compounds were applied to the plant material with an overhead Mandel track sprayer equipped with 8002E nozzles calibrated to deliver 187 L/ha over an application area of 0.503 square meters (m^2) at a spray height of 18 inches […] above average plant canopy. Control plants were sprayed in the same manner with the solvent blank.
as §3
(§7) Colby's equation was used to determine the herbicidal effects expected from the mixtures (Colby, S. R. 1967. Calculation of the synergistic and antagonistic response of herbicide combinations. Weeds 15:20-22.).
as §4

In experiment [5] the test system is annual ryegrass (Lolium multiflorum L; LOLMG). The experiment can be described thus: Postemergence herbicidal activity of mixtures in cereal crops (greenhouse, visual injury). The settings on record: 50 g/ha, Table 22. How it is done: as §5, §6, §3, §7, §4
Experiment [6] has as its system windgrass (Apera spica-venti L; APESV). The description is as above. Conditions: Apera spica-venti, post-emergence, read-out: APESV Ob. On the procedure: as §5, §6, §3, §7, §4
The test system of experiment [7] is littleseed Canarygrass (Phalaris minor L; PHAMI). Described as above. On the procedure:
as §5, §6, §3, §7, §4

In a further experiment the test system is Cyperus iria L. (CYPIR). The experiment can be described thus: Postemergence herbicidal mixtures for weed control in direct seeded rice (greenhouse, visual % injury).
For experiment [8], the system named is Ipomoea hederacea (L.) JACQ. (IPOHE). The experiment can be described thus: Postemergence herbicidal mixtures for weed control in direct seeded rice (greenhouse, visual % injury after 3 weeks).
Experiment [9] deals with Cyperus esculentus L. (CYPES). The experiment can be described thus: Postemergence herbicidal mixtures for weed control in direct seeded rice (greenhouse, visual % injury).
Experiment [10] deals with wild pansy (Viola tricolor L; VIOTR). The experiment can be described thus: Postemergence herbicidal activity of mixtures in cereal crops (greenhouse, visual injury). The settings on record: Viola tricolor, post-emergence, 31.25 g/ha alone; read-out: VIOTR Ob. How it is done: as §1, §2, §3, §4

Consider `COc1nc(C)nc(NC(=O)NS(=O)(=O)c2ccccc2Cl)n1` [Chlorsulfuron, 2-chloro-N-[[(4-methoxy-6-methyl-1,3,5-triazin-2-yl)amino]carbonyl]benzenesulfonamide, reference compound], for which, in [1] (2.2 g/ha, Table 28), the “VERPE Ob” value was determined as 5%.

With `CC(Oc1ccc(Cl)cc1Cl)C(=O)O` (stereo not drawn) [Dichlorprop], the pest or weed control at 140 g/ha was 20% in experiment [1] (Veronica persica, post-emergence, 140 g/ha alone, read-out: VERPE Ob) and 10% in [2].

`CS(=O)(=O)c1ccc(C(=O)C2C(=O)CCCC2=O)c(Cl)c1` [Sulcotrione]: the “% Injury ECHOR Ob” value in experiment [3] (Sulcotrione 70 g/ha alone (Compound A Methyl half)) and in experiment [3] (Sulcotrione 70 g/ha alone (Compound A TEA half)) was 10% each time.

On to `CCON=C(CC)C1=C(O)CC(c2c(C)cc(C)cc2C)CC1=O` (stereo not drawn) [Tralkoxydim, 2-[1-(ethoxyimino)propyl]-3-hydroxy-5-(2,4,6-trimethylphenyl)-2-cyclohexen-1-one, reference compound], for which the “ALOMY Ob” value in experiment [4] (25 g/ha, Table 6) is listed as 78%; in experiment [4] (50 g/ha, Table 6), 70%; in experiment [4] (50 g/ha, Table 22), 70%. Moreover, in experiment [5], the “LOLMG Ob” value is 50%. The pest or weed control at 50 g/ha in experiment [6] was 75%. Besides, the “PHAMI Ob” value in experiment [7] (25 g/ha, Table 6) stood at 35%; in [7] (50 g/ha, Table 6) it was 45%; in experiment [7] (50 g/ha, Table 22) it was 30%.

For `COc1cc(OC)nc(Oc2cccc(Oc3nc(OC)cc(OC)n3)c2C(=O)O)n1` [Bispyribac-sodium], the “% Injury CYPIR Ob” value is reported as 40% in the experiment with Cyperus iria L. (CYPIR) (alone 7 g/ha), 90% with Cyperus iria L. (CYPIR) (alone 14 g/ha) and 95% in the experiment on Cyperus iria L. (CYPIR) (alone 28 g/ha). The figures for the “% Injury IPOHE Ob” value in experiment [8] (alone 7 g/ha) and in experiment [8] (alone 28 g/ha) were 10% and 60%, respectively. For the same molecule, the “% Injury CYPES Ob” value in [9] (alone 14 g/ha) worked out at 0%; in experiment [9] (alone 28 g/ha), 50%.

For the molecule `CCOC(=O)c1cnn(C)c1S(=O)(=O)NC(=O)Nc1nc(OC)cc(OC)n1` [Pyrazosulfuron-ethyl], the “% Injury Ob” value in experiment [3] (ECHCG, 5.25 g/ha alone) is listed as 20%.

For the molecule `CCC(C)(CC)c1cc(NC(=O)c2c(OC)cccc2OC)on1` [Isoxaben], the pest or weed control at 31.25 g/ha in [1] (Veronica persica, post-emergence, 31.25 g/ha alone, read-out: VERPE Ob) came out at 0%; in experiment [10], 3%.

Take `CCOc1c(Cl)ccc(-c2cc(N)c(Cl)c(C(=O)OC)n2)c1F` [Compound D Methyl]: the “% Injury CYPIR Ob” value in the experiment with Cyperus iria L. (CYPIR) (alone 8.75 g/ha) was determined as 50%; in the experiment with Cyperus iria L. (CYPIR) (alone 35 g/ha) it was 80%.

Consider `CCN(CC)CC.O=C(O)COc1nc(Cl)c(Cl)cc1Cl` [Triclopyr-TEA], for which the “% Injury CYPES Ob” value in [9] (alone 140 g/ha) and in experiment [9] (alone 280 g/ha) was 0% each time.
